The values that follow come from US11377425B1, “Small molecule modulators of IL-17” (LEO Pharma A/S, priority 2018, dated 2022).

Each structure is given as a SMILES string.

Usually EC50 stands for the concentration needed to bring the measured effect to its halfway point.

The target of the experiment is T1, human IL-17AA (Homo sapiens, UniProt Q16552).
T1 construct: host or cells: HEK (human embryonic kidney) cells
T1 sequence (Q16552 24-155): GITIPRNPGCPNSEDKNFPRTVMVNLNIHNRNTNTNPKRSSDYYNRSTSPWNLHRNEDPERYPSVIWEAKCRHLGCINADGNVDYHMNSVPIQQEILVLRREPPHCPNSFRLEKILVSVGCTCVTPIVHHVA
Description: IL-8 release assay in human epithelial keratinocytes adult (HEKa). It is filed as cell-based. The settings on record: HEKa cells, 3 ng/mL HEK-human IL-17AA + 10 ng/mL human TNFalpha; read-out: Rel EC50 IL-8 release assay. The essentials:
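Adult human epidermal keratinocytes stimulated 68-72 h at 37 °C with 3 ng/mL HEK-derived human IL-17AA plus 10 ng/mL TNF-alpha (final) in the presence of compound; TNF-alpha alone defines 100% inhibition. Secreted IL-8 measured by HTRF as percent of controls; relative IC50/Emax from four-parameter fit (r^2>0.9), cytotoxicity by PrestoBlue.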

As for `Cc1n[nH]c(C)c1-c1ccc(NC(=O)C(NC(=O)c2ccnn2C)C2CCc3c(F)cccc32)cc1` (single isomer, unassigned) [Example 248], the EC50 is above 1000 nM.

With `Cc1n[nH]c(C)c1-c1ccc(NC(=O)[C@@H](NC(=O)c2ccnn2CCC(F)F)C(C2CC2)C2CC2)cc1` [Example 215, N-[(1S)-1-(dicyclopropylmethyl)-2-[4-(3,5-dimethyl-1H-pyrazol-4-yl)anilino]-2-oxo-ethyl]-2-(3,3-difluoropropyl)pyrazole-3-carboxamide], the EC50 is below 100 nM.

`CCn1nncc1C(=O)N[C@H](C(=O)Nc1ccc(-c2c(C)n[nH]c2C)cc1)C(C1CCC1)C1CCC1` [Example 271, N-[(1S)-1-[di(cyclobutyl)methyl]-2-[4-(3,5-dimethyl-1H-pyrazol-4-yl)anilino]-2-oxo-ethyl]-3-ethyl-triazole-4-carboxamide]: the EC50 is below 100 nM.

For `Cc1n[nH]c(C)c1-c1ccc(NC(=O)[C@@H](NC(=O)c2ccnn2C(C)CO)[C@H]2CC[C@H](C)CC2)cc1` (single isomer, unassigned) [Example 205], the EC50 was below 100 nM.

Regarding `Cc1n[nH]c(C)c1-c1ccc(NC(=O)[C@@H](NC(=O)c2cnnn2C(C)C)C(C2CCC2)C2CCC2)cc1` [Example 273, N-[(1S)-1-[di(cyclobutyl)methyl]-2-[4-(3,5-dimethyl-1H-pyrazol-4-yl)anilino]-2-oxo-ethyl]-3-isopropyl-triazole-4-carboxamide], the EC50 was below 100 nM.

Turning to `CCn1nccc1C(=O)N[C@H](C(=O)Nc1ccc(-c2c(C)n[nH]c2C)cc1)[C@@H]1CC(C)(C)CCC1(F)F` [Example 213, N-[(1S)-1-[(1S)-2,2-difluoro-5,5-dimethyl-cyclohexyl]-2-[4-(3,5-dimethyl-1H-pyrazol-4-yl)anilino]-2-oxo-ethyl]-2-ethyl-pyrazole-3-carboxamide], the EC50 is below 100 nM.

Regarding `Cc1n[nH]c(C)c1-c1ccc(NC(=O)[C@@H](NC(=O)c2ccnn2C)C2CCC(C(F)(F)F)CC2)cc1` (single isomer, unassigned) [Example 269], the EC50 was in the range of 100 to 1000 nM.

For `CCC(C)n1nccc1C(=O)N[C@H](C(=O)Nc1ccc(-c2c(C)n[nH]c2C)cc1)C(C1CC1)C1CC1` (stereo partly drawn) [Example 128, N-[(1S)-1-(dicyclopropylmethyl)-2-[4-(3,5-dimethyl-1H-pyrazol-4-yl)anilino]-2-oxo-ethyl]-2-sec-butyl-pyrazole-3-carboxamide], the EC50 is below 100 nM.

Consider `Cc1n[nH]c(C)c1-c1ccc(NC(=O)[C@@H](NC(=O)c2ccnn2CC(F)(F)F)C(C2CC2)C2CC2)cc1` [Example 184, N-[(1S)-1-(dicyclopropylmethyl)-2-[4-(3,5-dimethyl-1H-pyrazol-4-yl)anilino]-2-oxo-ethyl]-2-(2,2,2-trifluoroethyl)pyrazole-3-carboxamide], for which the EC50 is below 100 nM.

Regarding `Cn1cncc1-c1ccc(NC(=O)[C@@H](NC(=O)OC(C)(C)C)C2CCCCC2)cc1` [Example 100, tert-butyl N-[(1S)-1-cyclohexyl-2-[4-(3-methylimidazol-4-yl)anilino]-2-oxo-ethyl]carbamate], the EC50 is above 1000 nM.

`Cc1n[nH]c(C)c1-c1ccc(NC(=O)[C@@H](NC(=O)O[C@H](C)CC[C@@H](C)O)C(C2CC2)C2CC2)cc1` [Example 480, [(1R,4R)-4-hydroxy-1-methyl-pentyl] N-[(1S)-1-(dicyclopropylmethyl)-2-[4-(3,5-dimethyl-1H-pyrazol-4-yl)anilino]-2-oxo-ethyl]carbamate]: the EC50 lay within 100 to 1000 nM.

As for `Cc1n[nH]c(C)c1-c1ccc(NC(=O)[C@@H](NC(=O)OCCCCO)C(C2CC2)C2CC2)cc1` [Example 479, 4-hydroxy butyl N-[(1S)-1-(dicyclopropylmethyl)-2-[4-(3,5-dimethyl-1H-pyrazol-4-yl)anilino]-2-oxo-ethyl]carbamate], the EC50 lay within 100 to 1000 nM.

Take `Cc1n[nH]c(CO)c1-c1ccc(NC(=O)[C@@H](NC(=O)c2ccnn2C)C(c2ccccc2)c2ccccc2)cc1` [Example 447, N-[(1S)-1-benzhydryl-2-[4-[5-(hydroxymethyl)-3-methyl-1H-pyrazol-4-yl]anilino]-2-oxo-ethyl]-2-methyl-pyrazole-3-carboxamide]: the EC50 was in the range of 100 to 1000 nM.

For `Cn1cncc1-c1ccc(NC(=O)[C@@H](NC(=O)c2ccnn2C)[C@@H]2CCc3ccc(Br)cc32)cc1` [Example 340, N-[(1S)-1-[(1R)-6-bromoindan-1-yl]-2-[4-(3-methylimidazol-4-yl)anilino]-2-oxo-ethyl]-2-methyl-pyrazole-3-carboxamide], the EC50 was above 1000 nM.

With `Cc1n[nH]c(C)c1-c1ccc(NC(=O)[C@@H](NC(=O)c2ccnn2C)C(C)CC2CC2)cc1` (single isomer, unassigned) [Example 159], the EC50 is 100 to 1000 nM.

Regarding `CCn1nccc1C(=O)N[C@H](C(=O)Nc1ccc(-n2c(C)c[nH]c2=O)cc1)C(C1CC1)C1CC1` [Example 370, N-[(1S)-1-(dicyclopropylmethyl)-2-[4-(4-methyl-2-oxo-1H-imidazol-3-yl)anilino]-2-oxo-ethyl]-2-ethyl-pyrazole-3-carboxamide], the EC50 is above 1000 nM.

With `Cc1n[nH]c(C)c1-c1ccc(NC(=O)[C@@H](NC(=O)OC2CC2)C(c2ccccc2)c2ccccc2)cc1` [Example 426, cyclopropyl N-[(1S)-1-benzhydryl-2-[4-(3,5-dimethyl-1H-pyrazol-4-yl)anilino]-2-oxo-ethyl]carbamate], the EC50 lay in the range of 100 to 1000 nM.

Take `Cc1n[nH]c(C)c1-c1ccc(NC(=O)[C@@H](NC(=O)c2ccnn2C)C(c2ccccc2)c2ccccc2)cc1` [Example 2, N-[(1S)-1-benzhydryl-2-[4-(3,5-dimethyl-1H-pyrazol-4-yl)anilino]-2-oxo-ethyl]-2-methyl-pyrazole-3-carboxamide]: the EC50 is 100 to 1000 nM.

Take `Cn1cncc1-c1ccc(NC(=O)C(NC(=O)c2ccnn2C)C(c2cccc(Cl)c2)c2cccc(Cl)c2)cc1` (single isomer, unassigned) [Example 373B, N-(1,1-Bis(3-chlorophenyl)-3-((4-(1-methyl-1H-imidazol-5-yl)phenyl)amino)-3-oxopropan-2-yl)-1-methyl-1H-pyrazole-5-carboxamide]: the EC50 is above 1000 nM.

Turning to `Cc1n[nH]c(C)c1-c1ccc(NC(=O)[C@@H](NC(=O)c2coc3ccccc23)C2CCCCC2)cc1` [Example 73, N-[(1S)-1-cyclohexyl-2-[4-(3,5-dimethyl-1H-pyrazol-4-yl)anilino]-2-oxo-ethyl]benzofuran-3-carboxamide], the EC50 fell in the range of 100 to 1000 nM.

In the case of `Cc1n[nH]c(C)c1-c1ccc(NC(=O)[C@H](CC(C)(C)C)NC(=O)c2ccnn2C)cc1` [Example 281], the EC50 fell in the range of 100 to 1000 nM.

For the molecule `Cc1n[nH]c(C)c1-c1ccc(NC(=O)[C@@H](NC(=O)c2conc2C(C)C)C2CCCCC2)cc1` [Example 277, N-[(1S)-1-cyclohexyl-2-[4-(3,5-dimethyl-1H-pyrazol-4-yl)anilino]-2-oxo-ethyl]-3-isopropyl-isoxazole-4-carboxamide], the EC50 was below 100 nM.

Take `Cc1n[nH]c(C)c1-c1ccc(NC(=O)C(NC(=O)c2ccnn2C(C)C)C(C)C2CC2)cc1` (stereo not drawn) [Example 282]: the EC50 lay in the range of 100 to 1000 nM.

Consider `Cc1n[nH]c(C)c1-c1ccc(NC(=O)C(NC(=O)c2ccnn2CCC(C)O)C2CCCCCCC2)cc1` (single isomer, unassigned) [Example 145, N-[1-cyclooctyl-2-[4-(3,5-dimethyl-1H-pyrazol-4-yl)anilino]-2-oxo-ethyl]-2-(3-hydroxybutyl)pyrazole-3-carboxamide], for which the EC50 is below 100 nM.
